This passage reports increment of activity results from paper PMC11711195, “The non-nutritive sweetener rebaudioside a enhances phage infectivity” (Scientific Reports, 2025).

The target of this assay is T1, gp31 (Klebsiella phage KP32, UniProt D1L2W4).
T1 construct: gene 31; recombinant from bacterial expression, His-tag (and MBP) removed by TEV protease
T1 sequence (D1L2W4 1-192): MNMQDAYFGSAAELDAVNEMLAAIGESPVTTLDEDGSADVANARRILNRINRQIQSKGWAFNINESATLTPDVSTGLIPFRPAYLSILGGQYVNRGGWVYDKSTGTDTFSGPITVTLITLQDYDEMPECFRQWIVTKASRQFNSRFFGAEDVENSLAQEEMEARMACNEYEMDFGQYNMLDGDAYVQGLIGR
The assay can be described thus: RedStarch hydrolysis, absorbance […] nm. The format is biochemical. Conditions: activator; RedStarch 2% w/v stock; 50 µL gp31 4.673 µM plus 50 µL rebA 14.019 µM; 20 °C, 72 h.

On to `C=C1C[C@@]23CC[C@H]4[C@@](C)(CCC[C@@]4(C)C(=O)O[C@@H]4O[C@H](CO)[C@@H](O)[C@H](O)[C@H]4O)[C@@H]2CC[C@]1(O[C@@H]1O[C@H](CO)[C@@H](O)[C@H](O[C@@H]2O[C@H](CO)[C@@H](O)[C@H](O)[C@H]2O)[C@H]1O[C@@H]1O[C@H](CO)[C@@H](O)[C@H](O)[C@H]1O)C3` [rebA], for which the increment of activity came to 51.14%.
